The target of test [1] is T1, rat mGluR5 receptor (Rattus norvegicus, UniProt P31424).
T1 construct: expressed in transfected cells; host or cells: HEK-293
As to the kind of experiment: [3H]-MPEP binding HEK-293 cell membranes expressing a rat mGluR5 receptor. The note with it: displacement of 4 nM [3H]-MPEP, HEK-293 cell membranes expressing rat mGluR5, 60 minute at room temperature; read-out: mGluR5 Ligand Binding DR Ki. The protocol:
TITLE: [^3H]-MPEP binding HEK-293 cell membranes expressing a rat mGluR5 receptor. PURPOSE: To identify high affinity compounds at the rat mGluR5 receptor based on their ability to displace the mGluR5 negative allosteric modulator, MPEP.
mGluR5 expressing HEK-293 cells are scraped off the plate, transferred to centrifuge tubes, and washed twice by centrifugation (2000 rpm for 10 min., 4° C.) in buffer (50 mM Tris pH 7.5). The resulting pellets are aliquoted and placed at −80° C. On the day of assay, the cells are thawed on ice, and resuspended in buffer. The binding assay is performed in a 96 well microtiter plate in a total volume of 250 μL. Non-specific binding is determined in the presence of 10 μM MPEP. Binding reaction includes a final radioligand [^3H]-MPEP concentration of 4 nM and 12-25 ug membrane protein per well. Following a 60 minute incubation at room temperature, the reaction is terminated by the addition of ice cold buffer and rapid filtration through a GF/B filter presoaked for 30 minutes in 0.5% PEI. Compounds are initially tested in a single point assay to determine percent inhibition at 10 μM. Subsequently, Ki values are determined for compounds defined to be active.
% inhibition and Ki values generated by GraphPad Prism and Excel Fit. IC50 values are calculated using GraphPad by fitting to a 1 or 2 site-binding model. Ki values are calculated from the apparent IC50 values using the Cheng-Prussof equation:
(§1) where [L]=concentration of free radioligand and Kd=dissociation constant of radioligand for the receptor. TITLE: Identification of metabotropic glutamate receptor 5 antagonists using a stable, sensitive fluorescence-based screening system PURPOSE: The aim of the research presented here was to develop a robust functional assay to measure changes in intracellular calcium, with the goal of identifying potent mGluR5 antagonists.

For test [2], the target named is T2, metabotropic glutamate receptor 5 (Rattus norvegicus, UniProt P31424).
T2 construct: expressed in transfected cells; host or cells: HEK-293
T2 sequence (P31424 21-1203): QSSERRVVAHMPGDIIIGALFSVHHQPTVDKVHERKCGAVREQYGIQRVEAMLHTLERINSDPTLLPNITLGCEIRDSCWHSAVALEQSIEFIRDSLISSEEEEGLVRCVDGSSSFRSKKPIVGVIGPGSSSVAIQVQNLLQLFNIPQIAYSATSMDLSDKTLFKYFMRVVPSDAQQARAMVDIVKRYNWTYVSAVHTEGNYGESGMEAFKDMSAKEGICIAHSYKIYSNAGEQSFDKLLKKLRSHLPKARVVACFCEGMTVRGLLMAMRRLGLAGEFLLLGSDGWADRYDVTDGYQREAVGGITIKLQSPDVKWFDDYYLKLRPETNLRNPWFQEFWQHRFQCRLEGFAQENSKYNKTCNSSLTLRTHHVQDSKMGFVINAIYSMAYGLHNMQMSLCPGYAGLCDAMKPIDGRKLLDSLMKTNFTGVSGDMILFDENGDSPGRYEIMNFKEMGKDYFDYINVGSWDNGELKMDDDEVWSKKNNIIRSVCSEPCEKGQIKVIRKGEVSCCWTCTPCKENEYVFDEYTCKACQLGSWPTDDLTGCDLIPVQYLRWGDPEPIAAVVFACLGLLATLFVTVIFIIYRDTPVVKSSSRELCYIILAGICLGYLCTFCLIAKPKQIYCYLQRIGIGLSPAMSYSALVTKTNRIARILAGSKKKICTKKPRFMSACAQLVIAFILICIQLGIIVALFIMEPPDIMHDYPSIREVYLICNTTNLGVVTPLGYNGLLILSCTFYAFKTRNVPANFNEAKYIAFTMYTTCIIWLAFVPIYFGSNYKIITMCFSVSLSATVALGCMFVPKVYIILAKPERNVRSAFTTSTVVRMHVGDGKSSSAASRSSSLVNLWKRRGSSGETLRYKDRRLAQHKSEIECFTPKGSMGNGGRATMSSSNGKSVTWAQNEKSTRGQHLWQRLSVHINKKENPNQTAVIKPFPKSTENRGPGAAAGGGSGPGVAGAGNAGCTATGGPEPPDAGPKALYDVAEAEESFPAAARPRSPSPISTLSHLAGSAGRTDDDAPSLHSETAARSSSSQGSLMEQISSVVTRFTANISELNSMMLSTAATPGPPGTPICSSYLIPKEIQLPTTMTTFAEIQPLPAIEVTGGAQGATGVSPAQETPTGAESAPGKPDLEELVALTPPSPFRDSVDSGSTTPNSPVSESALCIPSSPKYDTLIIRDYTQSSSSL
As to the kind of experiment: FLIPR Calcium 3 fluorescence-based functional assay of intracellular calcium, mGluR5 antagonist activity. In kind it is cell-based. The following applies: inhibition of glutamate (EC90, ~50 uM) stimulated calcium levels, mGluR5 HEK-293 cells; read-out: mGluR5 FLIPR MP Antagonist DR IC50.
Text: as §1
The FLIPR Calcium 3 Assay Kit is designed to work with many cell types, both adherent and non-adherent. Optimal cell conditions for the FLIPR Calcium 3 Assay Kit require the creation of a confluent cell monolayer before placing the plates in FLIPR or FlexStation. In general, we start with 50,000 mGluR5 HEK-293 cells/well for a 96-well plate. For adherent cells, seeding cells overnight with a plating volume of 100 μL/well worked for 96-well plates.
Remove cell plates from the incubator. Remove the supernatant medium. Add 180 ul of Loading Buffer to each well (for 96-well plates). HBSS buffer component B) pipette 100 mL of 10× Hank's Balanced Salt Solution and 20 mL of 1M Hepes buffer
Incubate cell plates for 1 hour at 37° C. and then keep the plates at room temperature until used.
After incubation, transfer the plates directly to FLIPR and begin the calcium assay as described in the FLIPR system manual. For a signal test, a starting average count of ˜10,000 is recommended. Recommended experimental setup parameters are as follows. Faster addition speeds can lead to better mixing of compounds and lower signal variance across the plate.
Test or reference compound is added to the 96-well plate (manually). […] Relative Fluorescence Units (RFUs) are recorded over a given time period (stated above) depending on the platform system used.
For antagonists, results are expressed as % inhibition of glutamate stimulated Calcium levels. IC50 values were calculated by Prism GraphPad using a 4-parameter logistic equation. IC50 values are calculated using GraphPad by fitting to a 1 site-model.

By Ki is commonly meant a measure of affinity in units of concentration, obtained from inhibition or displacement. One may read the IC50 as the concentration at which inhibition is half-maximal.

T1 sequence (P31424 21-1203): as above

Turning to `COc1ccc(C(=O)N2CCc3c(OC)ccc(OC)c3C2)cc1C#Cc1ccccn1` [Example 19, 5,8-dimethoxy-2-[4-methoxy-3-(pyridin-2-ylethynyl)benzoyl]-1,2,3,4-tetrahydroisoquinoline], in test [1], the Ki stood at 6 nM. Further, the IC50 in test [2] was 30 nM.
With `COc1ccc(C(=O)N2CCc3cc(OC)c(OC)cc3C2)cc1C#Cc1ccccn1` [Example 20, 6,7-dimethoxy-2-[4-methoxy-3-(pyridin-2-ylethynyl)benzoyl]-1,2,3,4-tetrahydroisoquinoline], the Ki in test [1] turned out to be 36 nM. Besides, the IC50 in test [2] worked out at 49 nM.
`COc1ccc(C(=O)N2CCc3cccc(OC)c3C2)cc1C#Cc1ccccn1` [Example 21, 8-methoxy-2-[4-methoxy-3-(pyridin-2-ylethynyl)benzoyl]-1,2,3,4-tetrahydroisoquinoline]: the Ki in test [1] came out at 3 nM. Further, in test [2], the IC50 was found to be 34 nM.
For `COc1ccc(C(=O)N2CCc3ccccc3C2c2cccs2)cc1C#Cc1ccccn1` (centres unmarked) [Example 22, 2-[4-methoxy-3-(pyridin-2-ylethynyl)benzoyl]-1-(2-thienyl)-1,2,3,4-tetrahydroisoquinoline], the Ki in test [1] worked out at 22 nM. For the same compound, the IC50 in test [2] is 220 nM.
On the same counts, the results for `COc1ccc(C(=O)N2Cc3ccccc3C(S(=O)(=O)N3CCS(=O)(=O)CC3)C2)cc1C#Cc1ccccn1` (centres unmarked) [Example 25, 4-[(1,1-dioxidothiomorpholin-4-yl)sulfonyl]-2-[4-methoxy-3-(pyridin-2-ylethynyl)benzoyl]-1,2,3,4-tetrahydroisoquinoline] are 70 nM and 97 nM.
For `COc1ccc(C(=O)N2CCc3ccccc3C2c2ccccc2)cc1C#Cc1ccccn1` (centres unmarked) [Example 26, 2-[4-methoxy-3-(pyridin-2-ylethynyl)benzoyl]-1-phenyl-1,2,3,4-tetrahydroisoquinoline], in test [1], the Ki amounted to 57 nM. For the same compound, the 50% inhibitory concentration (IC50) in test [2] stood at 169 nM.
Take `COc1ccc(C(=O)N2CCc3ccccc3C2c2ccco2)cc1C#Cc1ccccn1` (centres unmarked) [Example 27, 1-(2-furyl)-2-[4-methoxy-3-(pyridin-2-ylethynyl)benzoyl]-1,2,3,4-tetrahydroisoquinoline]: the Ki in test [1] stood at 21 nM. Besides, the IC50 in test [2] stood at 40 nM.
As to `COc1ccc(C(=O)N2Cc3ccccc3C(CNc3ccccc3)C2)cc1C#Cc1ccccn1` (centres unmarked) [Example 29, N-({2-[4-methoxy-3-(pyridin-2-ylethynyl)benzoyl]-1,2,3,4-tetrahydroisoquinolin-4-yl}methyl)aniline], the Ki in test [1] was 68 nM. Further, the IC50 in test [2] was determined as 447 nM.
Consider `COc1ccc2c(c1)CCN(C(=O)c1ccc(OC)c(C#Cc3ccccn3)c1)C2` [Example 31, 6-methoxy-2-[4-methoxy-3-(pyridin-2-ylethynyl)benzoyl]-1,2,3,4-tetrahydroisoquinoline], for which the Ki in test [1] is 8 nM. The IC50 in test [2] turned out to be 61 nM.
On the same counts, the results for `COc1ccc(C(=O)N2Cc3ccc(C)cc3C2)cc1C#Cc1ccccn1` [Example 32, 2-[4-methoxy-3-(pyridin-2-ylethynyl)benzoyl]-5-methylisoindoline] are 3 nM and 42 nM.
For the compound `COc1ccc(C(=O)N2Cc3ccc(Br)cc3C2)cc1C#Cc1ccccn1` [Example 33, 5-bromo-2-[4-methoxy-3-(pyridin-2-ylethynyl)benzoyl]isoindoline], the Ki in test [1] was found to be 2 nM. Further, in test [2], the IC50 is 173 nM.
In the case of `COc1ccc(C(=O)N2Cc3cc(Cl)c(Cl)cc3C2)cc1C#Cc1ccccn1` [Example 34, 5,6-dichloro-2-[4-methoxy-3-(pyridin-2-ylethynyl)benzoyl]isoindoline], in test [1], the inhibitory constant (Ki) was 17 nM. Further, the IC50 in test [2] amounted to 1450 nM.
For `COc1ccc(C(=O)N2Cc3ccc([N+](=O)[O-])cc3C2)cc1C#Cc1ccccn1` [Example 35, 2-[4-methoxy-3-(pyridin-2-ylethynyl)benzoyl]-5-nitroisoindoline], the Ki in test [1] was 23 nM. Also, the IC50 in test [2] amounted to 61 nM.
With `COc1ccc(C(=O)N2Cc3cccc(F)c3C2)cc1C#Cc1ccccn1` [Example 36, 4-fluoro-2-[4-methoxy-3-(pyridin-2-ylethynyl)benzoyl]isoindoline], the Ki in test [1] worked out at 6 nM. In addition, in test [2], the IC50 amounted to 25 nM.
For `COc1ccc(C(=O)N2Cc3ccc(F)cc3C2)cc1C#Cc1ccccn1` [Example 37, 5-fluoro-2-[4-methoxy-3-(pyridin-2-ylethynyl)benzoyl]isoindoline], in test [1], the Ki came out at 6 nM. Also, in test [2], the IC50 is 40 nM.
`COc1ccc(C(=O)N2Cc3cccc(Cl)c3C2)cc1C#Cc1ccccn1` [Example 38, 4-chloro-2-[4-methoxy-3-(pyridin-2-ylethynyl)benzoyl]isoindoline]: the Ki in test [1] is 2 nM. In addition, the IC50 in test [2] was found to be 51 nM.
Take `COc1ccc(C(=O)N2CCc3ncccc3C2)cc1C#Cc1ccccn1` [Example 39, 6-[4-methoxy-3-(pyridin-2-ylethynyl)benzoyl]-5,6,7,8-tetrahydro-1,6-naphthyridine]: the Ki in test [1] is 23 nM. Besides, the IC50 in test [2] came out at 26 nM.
With `COc1ccc(C(=O)N2CCc3ncc(C)cc3C2)cc1C#Cc1ccccn1` [Example 40, 6-[4-methoxy-3-(pyridin-2-ylethynyl)benzoyl]-3-methyl-5,6,7,8-tetrahydro-1,6-naphthyridine], in test [1], the inhibition constant (Ki) came out at 22 nM. In addition, in test [2], the IC50 is 21 nM.
On the same counts, the results for `COc1ccc(C(=O)N2Cc3cnc(C)cc3C2)cc1C#Cc1ccccn1` [Example 41, 2-[4-methoxy-3-(pyridin-2-ylethynyl)benzoyl]-6-methyl-2,3-dihydro-1H-pyrrolo[3,4-c]pyridine] are 26 nM and 12 nM.
Regarding `COc1ccc(C(=O)N2Cc3cnc(C)c(C)c3C2)cc1C#Cc1ccccn1` [Example 42, 2-[4-methoxy-3-(pyridin-2-ylethynyl)benzoyl]-6,7-dimethyl-2,3-dihydro-1H-pyrrolo[3,4-c]pyridine], the inhibition constant (Ki) in test [1] was 20 nM. Besides, the IC50 in test [2] worked out at 28 nM.
On the same counts, the results for `COc1ccc(C(=O)N2Cc3cnc(C)c(Cl)c3C2)cc1C#Cc1ccccn1` [Example 43, 7-chloro-2-[4-methoxy-3-(pyridin-2-ylethynyl)benzoyl]-6-methyl-2,3-dihydro-1H-pyrrolo[3,4-c]pyridine] are 12 nM and 17 nM.
Turning to `COc1ccc(C(=O)N2Cc3cnc(C)c(N)c3C2)cc1C#Cc1ccccn1` [Example 44, 2-[4-methoxy-3-(pyridin-2-ylethynyl)benzoyl]-6-methyl-2,3-dihydro-1H-pyrrolo[3,4-c]pyridin-7-amine], the Ki in test [1] worked out at 20 nM. In test [2], the IC50 was 14 nM.
For the compound `COc1ccc(C(=O)N2Cc3cnc(C)c(OC)c3C2)cc1C#Cc1ccccn1` [Example 45, 7-methoxy-2-[4-methoxy-3-(pyridin-2-ylethynyl)benzoyl]-6-methyl-2,3-dihydro-1H-pyrrolo[3,4-c]pyridine], the Ki in test [1] stood at 31 nM. Moreover, in test [2], the IC50 is 35 nM.
On the same counts, the results for `COc1ccc(C(=O)N2Cc3ccncc3C2)cc1C#Cc1ccccn1` [Example 46, 2-[4-methoxy-3-(pyridin-2-ylethynyl)benzoyl]-2,3-dihydro-1H-pyrrolo[3,4-c]pyridine] are 31 nM and 18 nM.
For the compound `COc1ccc(C(=O)N2CCc3oc(C)nc3C2)cc1C#Cc1ccccn1` [Example 47, 5-{[4-methoxy-3-(pyridin-2-ylethynyl)phenyl]carbonyl}-2-methyl-4,5,6,7-tetrahydro[1,3]oxazolo[4,5-c]pyridine], the Ki in test [1] is 30 nM. Besides, the IC50 in test [2] is 33 nM.

Values taken from patent US20100273772A1, “Bisaryl Alkynylamides as Negative Allosteric Modulators of Metabotropic Glutamate Receptor 5 (MGLUR5)” (Wyeth LLC, priority 2009, published 2010).
